Experimental data taken from ChEMBL document CHEMBL5465560, “Selectivity Literature for EUbOPEN Chemogenomic Library” (2024).
Blank lines part the entries; values can stand above or below the compound they belong to.

Key:
[1] = biological target: Mitogen-activated protein kinase kinase kinase kinase 5 (Homo sapiens) (UniProt Q9Y4K4); details: at 10 µM
[2] = biological target: Proto-oncogene tyrosine-protein kinase ROS (Homo sapiens) (UniProt P08922); assay: Selectivity interaction (Millipore kinase profiler) EUB0000124b ROS1; details: at 10 µM
[3] = biological target: Dual specificity mitogen-activated protein kinase kinase 2 (Homo sapiens) (UniProt P36507); assay: Selectivity interaction (ActivX KiNativ screen (kinase selectivity in THP-1 cell lysates)) EUB0000639a MAP2K2; type: subcellular; details: lysate, at 0.04 µM
[4] = biological target: Ribosomal protein S6 kinase alpha-3 (Homo sapiens, UniProt P51812); assay: Selectivity interaction (ActivX KiNativ screen (kinase selectivity in THP-1 cell lysates)) EUB0000639a RPS6KA3; type: subcellular; details: lysate, at 0.01 µM
Thromboxane A2 receptor = Thromboxane A2 receptor (Homo sapiens, UniProt P21731); assay: Selectivity interaction (Thromboxane A2 receptor binding assay, human recombinant) EUB0000877a TBXA2R
[5] = biological target: T1, Dual specificity mitogen-activated protein kinase kinase 5 (Homo sapiens) (UniProt Q13163); assay: Selectivity interaction (LanthaScreen Eu Kinase Binding Assay) EUB0001632a MAP2K5; details: at 10 µM
T1 sequence (whole entry): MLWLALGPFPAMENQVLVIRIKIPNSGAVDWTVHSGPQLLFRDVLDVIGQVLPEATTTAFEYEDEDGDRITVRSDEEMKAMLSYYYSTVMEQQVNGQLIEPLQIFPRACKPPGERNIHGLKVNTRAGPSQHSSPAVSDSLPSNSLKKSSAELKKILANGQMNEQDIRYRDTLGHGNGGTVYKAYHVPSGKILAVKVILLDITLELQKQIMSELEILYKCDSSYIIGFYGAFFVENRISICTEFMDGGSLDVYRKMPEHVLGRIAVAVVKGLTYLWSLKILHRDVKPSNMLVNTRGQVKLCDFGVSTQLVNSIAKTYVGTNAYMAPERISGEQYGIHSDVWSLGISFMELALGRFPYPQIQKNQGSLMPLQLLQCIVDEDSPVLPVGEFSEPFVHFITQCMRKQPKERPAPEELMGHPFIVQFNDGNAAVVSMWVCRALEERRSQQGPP

[6] = biological target: T2, Serine/threonine-protein kinase Nek3 (Homo sapiens) (UniProt P51956); assay: Selectivity interaction (KinomeScan (DiscoverX)) EUB0001079a NEK3; details: at 1 µM
T2 sequence (whole entry): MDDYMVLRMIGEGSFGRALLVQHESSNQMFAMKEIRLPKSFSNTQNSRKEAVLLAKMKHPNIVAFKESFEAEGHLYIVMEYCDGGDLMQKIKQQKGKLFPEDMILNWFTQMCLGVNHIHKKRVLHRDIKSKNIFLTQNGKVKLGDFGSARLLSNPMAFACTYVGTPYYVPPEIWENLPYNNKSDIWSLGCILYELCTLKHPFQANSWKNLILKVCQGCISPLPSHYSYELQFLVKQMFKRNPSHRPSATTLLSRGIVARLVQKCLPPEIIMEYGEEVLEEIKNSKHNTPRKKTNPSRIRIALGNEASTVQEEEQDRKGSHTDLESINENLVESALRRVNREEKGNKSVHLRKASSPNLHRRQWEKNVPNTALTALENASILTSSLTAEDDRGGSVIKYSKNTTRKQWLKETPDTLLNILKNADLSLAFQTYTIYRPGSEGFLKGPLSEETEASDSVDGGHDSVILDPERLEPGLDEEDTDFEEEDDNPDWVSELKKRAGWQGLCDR

[7] = biological target: Calcium/calmodulin-dependent protein kinase kinase 1 (Homo sapiens) (UniProt Q8N5S9); assay: Selectivity interaction (KinomeScan (DiscoverX)) EUB0000092b CAMKK1; details: at 10 µM
[8] = biological target: T3, Calcium/calmodulin-dependent protein kinase type IV (Homo sapiens) (UniProt Q16566); assay: Selectivity interaction (KinomeScan (DiscoverX)) EUB0001619a CAMK4; details: at 1 µM
T3 sequence (whole entry): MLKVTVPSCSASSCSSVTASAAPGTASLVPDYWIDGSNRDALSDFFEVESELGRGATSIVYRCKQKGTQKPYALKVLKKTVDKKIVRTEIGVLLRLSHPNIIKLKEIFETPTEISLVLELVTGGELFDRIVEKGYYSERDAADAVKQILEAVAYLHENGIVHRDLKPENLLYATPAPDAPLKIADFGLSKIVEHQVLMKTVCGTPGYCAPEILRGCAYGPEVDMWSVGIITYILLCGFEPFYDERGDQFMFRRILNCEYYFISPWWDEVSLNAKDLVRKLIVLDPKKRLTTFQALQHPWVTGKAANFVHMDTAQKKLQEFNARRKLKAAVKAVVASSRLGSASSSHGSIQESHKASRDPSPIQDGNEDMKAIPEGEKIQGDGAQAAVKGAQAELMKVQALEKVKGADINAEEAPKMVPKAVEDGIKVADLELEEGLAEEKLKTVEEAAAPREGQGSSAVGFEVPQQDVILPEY

[9] = biological target: T4, Phosphatidylinositol 5-phosphate 4-kinase type-2 beta (Homo sapiens) (UniProt P78356); assay: Selectivity interaction (ActivX KiNativ screen (ex vivo kinase selectivity in human PBMCs)) EUB0001619a PIP4K2B; type: cell-based; details: PBMC, at 1 µM
T4 sequence (whole entry): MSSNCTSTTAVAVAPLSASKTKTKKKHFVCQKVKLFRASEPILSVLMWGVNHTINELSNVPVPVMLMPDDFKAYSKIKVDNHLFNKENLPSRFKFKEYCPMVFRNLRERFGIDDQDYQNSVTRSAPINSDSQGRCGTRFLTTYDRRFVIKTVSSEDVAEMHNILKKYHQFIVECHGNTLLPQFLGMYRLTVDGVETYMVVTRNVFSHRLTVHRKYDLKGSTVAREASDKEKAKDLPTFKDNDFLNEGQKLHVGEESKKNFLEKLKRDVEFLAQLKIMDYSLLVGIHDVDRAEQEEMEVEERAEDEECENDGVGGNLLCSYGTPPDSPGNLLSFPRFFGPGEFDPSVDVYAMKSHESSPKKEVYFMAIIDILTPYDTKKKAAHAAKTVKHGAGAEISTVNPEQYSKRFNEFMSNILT

Sequence of Mitogen-activated protein kinase kinase kinase kinase 5 (Homo sapiens) (Q9Y4K4 whole entry, looked up): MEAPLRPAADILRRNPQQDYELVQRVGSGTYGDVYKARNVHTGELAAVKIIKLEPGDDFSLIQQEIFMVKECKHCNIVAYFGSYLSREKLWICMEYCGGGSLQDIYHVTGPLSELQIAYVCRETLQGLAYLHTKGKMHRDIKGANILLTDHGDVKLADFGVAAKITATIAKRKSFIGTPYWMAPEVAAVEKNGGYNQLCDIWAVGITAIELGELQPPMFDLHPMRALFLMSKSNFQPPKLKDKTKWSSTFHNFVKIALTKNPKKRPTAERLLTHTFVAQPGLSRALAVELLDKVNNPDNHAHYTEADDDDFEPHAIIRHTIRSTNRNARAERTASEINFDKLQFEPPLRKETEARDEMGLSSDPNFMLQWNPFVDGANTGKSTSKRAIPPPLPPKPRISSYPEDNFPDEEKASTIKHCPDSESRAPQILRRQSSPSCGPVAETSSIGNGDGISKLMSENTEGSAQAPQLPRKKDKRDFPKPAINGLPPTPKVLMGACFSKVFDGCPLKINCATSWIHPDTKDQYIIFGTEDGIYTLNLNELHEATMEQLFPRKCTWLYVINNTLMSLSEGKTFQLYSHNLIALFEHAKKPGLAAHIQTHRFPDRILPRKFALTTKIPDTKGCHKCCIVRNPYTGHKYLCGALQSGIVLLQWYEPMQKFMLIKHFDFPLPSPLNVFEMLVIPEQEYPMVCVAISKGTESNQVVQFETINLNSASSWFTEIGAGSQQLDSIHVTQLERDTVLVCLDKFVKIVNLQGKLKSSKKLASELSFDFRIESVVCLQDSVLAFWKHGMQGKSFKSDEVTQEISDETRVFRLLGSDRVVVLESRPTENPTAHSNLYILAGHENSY
Sequence of Ribosomal protein S6 kinase alpha-3 (P51812 whole entry): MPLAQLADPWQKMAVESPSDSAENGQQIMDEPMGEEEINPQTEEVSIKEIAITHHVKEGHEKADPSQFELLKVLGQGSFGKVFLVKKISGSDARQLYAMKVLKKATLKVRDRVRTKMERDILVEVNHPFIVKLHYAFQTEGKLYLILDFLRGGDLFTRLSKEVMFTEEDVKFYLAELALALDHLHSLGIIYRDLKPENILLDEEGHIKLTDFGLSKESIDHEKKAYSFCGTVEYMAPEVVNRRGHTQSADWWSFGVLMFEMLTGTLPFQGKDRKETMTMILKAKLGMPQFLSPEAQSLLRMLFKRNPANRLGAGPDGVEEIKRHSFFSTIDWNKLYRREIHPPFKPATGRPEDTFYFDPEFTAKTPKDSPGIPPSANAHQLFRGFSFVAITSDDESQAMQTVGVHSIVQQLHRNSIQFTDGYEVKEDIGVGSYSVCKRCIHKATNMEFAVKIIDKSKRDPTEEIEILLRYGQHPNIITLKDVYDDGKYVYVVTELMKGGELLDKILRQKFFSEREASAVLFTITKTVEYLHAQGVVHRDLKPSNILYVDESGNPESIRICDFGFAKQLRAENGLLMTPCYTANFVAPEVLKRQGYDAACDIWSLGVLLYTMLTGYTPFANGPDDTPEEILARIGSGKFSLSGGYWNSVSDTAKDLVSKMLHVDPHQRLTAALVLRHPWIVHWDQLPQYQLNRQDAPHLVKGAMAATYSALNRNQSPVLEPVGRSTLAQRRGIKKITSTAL
Sequence of Proto-oncogene tyrosine-protein kinase ROS (Homo sapiens) (P08922 whole entry): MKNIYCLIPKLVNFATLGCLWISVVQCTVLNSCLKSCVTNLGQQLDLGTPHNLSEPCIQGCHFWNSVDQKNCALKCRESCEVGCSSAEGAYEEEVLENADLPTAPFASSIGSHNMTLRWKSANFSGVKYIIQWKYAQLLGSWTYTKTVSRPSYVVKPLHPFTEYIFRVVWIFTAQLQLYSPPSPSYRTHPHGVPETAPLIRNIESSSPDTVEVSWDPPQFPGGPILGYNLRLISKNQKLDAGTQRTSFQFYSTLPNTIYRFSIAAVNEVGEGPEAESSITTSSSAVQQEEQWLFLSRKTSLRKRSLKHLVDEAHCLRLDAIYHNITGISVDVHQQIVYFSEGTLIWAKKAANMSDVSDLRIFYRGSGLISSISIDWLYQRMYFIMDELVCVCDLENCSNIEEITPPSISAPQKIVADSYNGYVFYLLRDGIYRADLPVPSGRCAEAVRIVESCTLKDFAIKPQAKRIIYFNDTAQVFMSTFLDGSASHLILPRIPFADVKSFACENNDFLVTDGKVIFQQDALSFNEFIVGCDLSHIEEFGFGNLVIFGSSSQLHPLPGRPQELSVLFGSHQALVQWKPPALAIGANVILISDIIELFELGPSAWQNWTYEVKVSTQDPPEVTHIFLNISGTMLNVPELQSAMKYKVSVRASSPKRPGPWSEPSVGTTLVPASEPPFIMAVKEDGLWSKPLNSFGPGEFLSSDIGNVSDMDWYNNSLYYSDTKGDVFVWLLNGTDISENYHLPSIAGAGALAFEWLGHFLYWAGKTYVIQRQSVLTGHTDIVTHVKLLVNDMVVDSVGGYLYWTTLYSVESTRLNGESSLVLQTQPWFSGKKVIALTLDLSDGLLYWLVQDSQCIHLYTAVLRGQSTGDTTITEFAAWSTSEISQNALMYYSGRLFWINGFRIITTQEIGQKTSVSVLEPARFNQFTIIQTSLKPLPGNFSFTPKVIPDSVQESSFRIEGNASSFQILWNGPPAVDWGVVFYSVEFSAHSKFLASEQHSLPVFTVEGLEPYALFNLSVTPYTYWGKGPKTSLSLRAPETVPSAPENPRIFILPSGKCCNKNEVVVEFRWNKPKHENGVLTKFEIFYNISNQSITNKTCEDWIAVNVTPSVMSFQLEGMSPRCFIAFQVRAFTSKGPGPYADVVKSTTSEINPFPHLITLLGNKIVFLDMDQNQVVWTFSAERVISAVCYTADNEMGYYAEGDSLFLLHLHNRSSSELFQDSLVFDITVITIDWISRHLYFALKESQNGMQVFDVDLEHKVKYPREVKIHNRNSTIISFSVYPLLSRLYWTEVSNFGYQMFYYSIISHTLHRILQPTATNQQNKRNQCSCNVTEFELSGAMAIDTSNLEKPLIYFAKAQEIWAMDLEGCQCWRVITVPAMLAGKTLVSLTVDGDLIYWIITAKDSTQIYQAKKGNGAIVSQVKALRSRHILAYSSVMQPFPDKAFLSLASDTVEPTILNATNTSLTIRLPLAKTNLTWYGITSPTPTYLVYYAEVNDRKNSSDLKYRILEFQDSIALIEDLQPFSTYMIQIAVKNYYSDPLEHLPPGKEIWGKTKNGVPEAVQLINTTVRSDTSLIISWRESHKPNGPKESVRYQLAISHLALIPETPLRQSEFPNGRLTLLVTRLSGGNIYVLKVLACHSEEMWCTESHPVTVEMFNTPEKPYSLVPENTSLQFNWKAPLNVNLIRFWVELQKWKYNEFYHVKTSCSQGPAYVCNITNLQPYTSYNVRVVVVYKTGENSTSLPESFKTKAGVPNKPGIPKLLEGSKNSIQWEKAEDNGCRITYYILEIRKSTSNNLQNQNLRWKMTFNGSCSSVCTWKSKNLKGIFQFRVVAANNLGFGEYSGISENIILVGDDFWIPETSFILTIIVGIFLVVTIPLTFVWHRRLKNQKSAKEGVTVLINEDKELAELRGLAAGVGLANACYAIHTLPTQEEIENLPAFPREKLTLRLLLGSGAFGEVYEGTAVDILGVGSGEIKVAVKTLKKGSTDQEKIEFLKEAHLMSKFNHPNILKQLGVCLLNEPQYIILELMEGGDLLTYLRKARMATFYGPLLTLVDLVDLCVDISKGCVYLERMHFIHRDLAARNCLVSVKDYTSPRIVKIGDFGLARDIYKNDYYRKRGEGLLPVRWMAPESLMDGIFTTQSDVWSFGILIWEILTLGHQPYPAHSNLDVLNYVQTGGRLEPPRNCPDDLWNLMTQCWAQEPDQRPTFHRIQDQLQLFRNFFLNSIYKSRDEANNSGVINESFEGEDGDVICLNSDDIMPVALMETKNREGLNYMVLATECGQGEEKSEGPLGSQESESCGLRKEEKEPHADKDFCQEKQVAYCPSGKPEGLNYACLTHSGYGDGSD
Sequence of Thromboxane A2 receptor (P21731 whole entry): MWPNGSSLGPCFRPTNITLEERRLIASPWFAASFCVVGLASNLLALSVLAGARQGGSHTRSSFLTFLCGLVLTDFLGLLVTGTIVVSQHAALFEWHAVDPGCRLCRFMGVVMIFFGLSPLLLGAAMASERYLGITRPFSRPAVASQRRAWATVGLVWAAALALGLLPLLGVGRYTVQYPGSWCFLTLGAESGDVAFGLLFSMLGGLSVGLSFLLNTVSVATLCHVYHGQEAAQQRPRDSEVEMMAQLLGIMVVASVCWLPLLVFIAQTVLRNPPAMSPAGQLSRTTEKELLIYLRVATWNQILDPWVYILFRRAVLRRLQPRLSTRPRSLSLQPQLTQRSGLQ
Sequence of Calcium/calmodulin-dependent protein kinase kinase 1 (Homo sapiens) (Q8N5S9 whole entry, looked up): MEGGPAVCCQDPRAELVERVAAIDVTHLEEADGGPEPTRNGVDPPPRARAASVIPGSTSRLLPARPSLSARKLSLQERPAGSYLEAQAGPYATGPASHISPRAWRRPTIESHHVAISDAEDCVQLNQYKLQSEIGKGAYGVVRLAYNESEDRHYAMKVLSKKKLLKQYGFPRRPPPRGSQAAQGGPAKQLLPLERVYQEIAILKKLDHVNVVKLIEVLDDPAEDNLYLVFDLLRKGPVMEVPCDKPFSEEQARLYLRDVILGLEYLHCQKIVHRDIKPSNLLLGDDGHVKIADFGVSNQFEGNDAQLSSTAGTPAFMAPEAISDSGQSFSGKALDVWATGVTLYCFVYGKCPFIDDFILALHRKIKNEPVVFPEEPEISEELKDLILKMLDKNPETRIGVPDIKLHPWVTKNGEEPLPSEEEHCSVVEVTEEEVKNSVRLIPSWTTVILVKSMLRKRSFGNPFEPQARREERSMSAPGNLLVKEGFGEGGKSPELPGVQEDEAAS

SMILES: Cc1cc([C@@H](C)Nc2ccccc2C(=O)O)c2nc(N3CCOCC3)cc(=O)n2c1 [AZD-6482]
% of control [1]: 96%

% of control [2]: 107%
SMILES: CC(=O)Nc1cccc(-n2c(=O)n(C3CC3)c(=O)c3c(Nc4ccc(I)cc4F)n(C)c(=O)c(C)c32)c1

% of inhibition [3]: -38.8%
% of inhibition [4]: 5%
SMILES: CC[C@@H]1[C@H](F)C(=O)N[C@@H]1COc1nccc2cc(C(N)=O)c(OC)cc12 [ZIMLOVISERTIB]

IC50 (Thromboxane A2 receptor): > 30 µM
SMILES: CCC(=O)N1CC[C@H](Nc2ncnc3c2CN(c2cnc(OC)c(C(F)(F)F)c2)CC3)C1 [LENIOLISIB]

% of inhibition [5]: 0.023%
SMILES: Cn1cc(-n2cnc3c(NCc4nc5cc(Cl)c(Cl)cc5[nH]4)nc(N4CCOCC4)nc32)cn1

SMILES: Nc1cnc(N2CCc3cc(S(=O)(=O)Nc4c(F)cc(Cl)cc4F)cc(N4CCCC4=O)c32)nc1 [TP-020n]
% of control [6]: 100%

SMILES: CCC(=O)N1CCN(c2ccc(-n3c(=O)ccc4cnc5ccc(-c6cnc7ccccc7c6)cc5c43)cc2C(F)(F)F)CC1
% of control [7]: 80%

SMILES: N#Cc1cccc(-c2c[nH]c3ncnc(N4CCOCC4)c23)c1
% of control [8]: 100%
% of inhibition [9]: 15%
